What is called Km is the substrate concentration at which the rate is half of its maximum. In general, Vmax refers to the rate approached at saturating substrate.

One compound from paper PMC6515479, “An Investigation on Glucuronidation Metabolite Identification, Isozyme Contribution, and Species Differences of GL-V9 In Vitro and In Vivo” (Molecules, 2019) can be followed below.

A value given as a limit tells only on which side of the number the result lay.

Holding throughout (assay type): in vitro ADME
Data set [1] in a line: Enzyme kinetics of GL-V9 glucuronidation in monkey liver microsomes (MLMs). As to conditions: monkey, liver microsomes, pH 7.4; formation of 5-O-glucuronide GL-V9; MLMs, protein 0.1 mg/mL; mean ± SD, n = 3. The procedure: (§1) The composition of the incubation system (200 μL) contained liver microsomes of different species (0.1 mg protein/mL), 5 mM saccharolactone (D-saccharic acid 1,4-lactone monohydrate), 10 mM MgCl2, alamethicin (50 μg/mg protein), Tris-HCl buffer (50 mM, pH 7.4) and GL-V9 (1 μM). After 5 min of preincubation at 37 °C, UDPGA (5 mM) was added to initiate the phase II reaction. Control incubation samples were performed without UDPGA or without substrates (GL-V9). The reaction was terminated by addition of ice-cold methanol (three volumes) after incubation for 1 h at 37 °C. Samples were vortexed, centrifuged at 21,500× g for 10 min and then stored at 4 °C until HPLC-UV-TripleTOF analysis. To confirm that these metabolites are conjugates resulting from glucuronidation reaction, enzymatic hydrolysis of samples was processed. β-glucuronidase (100 KU, Sigma) was added and the hydrolysis was performed overnight at 37 °C. The control samples were carried out without β-glucuronidase under the same condition.
(§2) Enzyme kinetics experiments were carried out in triplicate among five different species, including monkey, beagle dog, rat, mouse, and human. The reaction system and operations are as same as described in Section 4.3. The solutions of GL-V9 were selected over a range of concentrations (0.05, 0.2, 0.5, 1, 2, 5, 10, 20 μM). According to the different metabolic capacity, the protein concentration of liver microsomes of different species is different as shown in Table 1.
(§3) Rates of the glucuronidation of GL-V9 were described as amounts of glucuronides formed per minute per milligram (pmol/min/mg). The calculation model of kinetic parameters was selected by the profile of Eadie-Hofstee plots. It often includes three possibilities: (1) the Eadie-Hofstee plot was linear, the formation rates of glucuronides (V) at different substrate concentrations (C) were fit to the standard Michaelis-Menten calculation of GraphPad Prism (version 6.02, GraphPad Software Inc., Guildford, Surrey, UK); (2) the Eadie-Hofstee plot was atypical kinetic-autoactivation, the rates and concentration were fit with the allosteric sigmoidal function of GraphPad Prism; (3) the Eadie-Hofstee plot was atypical kinetic-biphasic, the rates and concentration were fit with the […] of GraphPad Prism.
On the technique in general: Microsomes from liver hold many membrane-bound enzymes, among them those of drug oxidation.

The subject of data set [2] is monkey liver microsomes (MLMs). The data set is described as above. The procedure: as §1, §2, §3
The nature of data set [3]: Enzyme kinetics of GL-V9 glucuronidation in rat liver microsomes (RLMs). Particulars: rat, liver microsomes, pH 7.4, formation of 5-O-glucuronide GL-V9, protein 0.1 mg/mL, mean ± SD, n = 3. The procedure: as §1
(§4) Enzyme kinetics experiments were carried out in triplicate among five different species, including monkey, beagle dog, rat, mouse, and human. The reaction system and operations are as same as described in Section 4.3. The solutions of GL-V9 were selected over a range of concentrations (0.05, 0.2, 0.5, 1, 2, 5, 10, 20 μM). […]

Data set [4] deals with rat liver microsomes (RLMs). Described as above. Particulars: formation of 5-O-glucuronide GL-V9, protein 0.1 mg/mL, mean ± SD, n = 3. The procedure:
as §1, §4

Data set [5] is described as follows: Enzyme kinetics of GL-V9 glucuronidation in mouse liver microsomes (MiceLMs). As to conditions: mouse, liver microsomes, pH 7.4, formation of 5-O-glucuronide GL-V9, protein 0.2 mg/mL, mean ± SD, n = 3. The procedure:
as §1, §4

Data set [6] has as its system mouse liver microsomes (MiceLMs). The description is as above. Particulars: formation of 5-O-glucuronide GL-V9, protein 0.2 mg/mL, mean ± SD, n = 3. The procedure:
as §1, §4

The subject of data set [7] is human liver microsomes (HLMs). The experiment in a line: Enzyme kinetics of GL-V9 glucuronidation in human liver microsomes (HLMs). As to conditions: formation of 5-O-glucuronide GL-V9, protein 0.075 mg/mL, mean ± SD, n = 3. The procedure: as §1, §4
Data set [8] concerns the target T1, rUGT1A10 (Homo sapiens, UniProt Q9HAW8).
T1 construct: purchased Corning (Woburn, MA, USA)
T1 sequence (Q9HAW8 26-530): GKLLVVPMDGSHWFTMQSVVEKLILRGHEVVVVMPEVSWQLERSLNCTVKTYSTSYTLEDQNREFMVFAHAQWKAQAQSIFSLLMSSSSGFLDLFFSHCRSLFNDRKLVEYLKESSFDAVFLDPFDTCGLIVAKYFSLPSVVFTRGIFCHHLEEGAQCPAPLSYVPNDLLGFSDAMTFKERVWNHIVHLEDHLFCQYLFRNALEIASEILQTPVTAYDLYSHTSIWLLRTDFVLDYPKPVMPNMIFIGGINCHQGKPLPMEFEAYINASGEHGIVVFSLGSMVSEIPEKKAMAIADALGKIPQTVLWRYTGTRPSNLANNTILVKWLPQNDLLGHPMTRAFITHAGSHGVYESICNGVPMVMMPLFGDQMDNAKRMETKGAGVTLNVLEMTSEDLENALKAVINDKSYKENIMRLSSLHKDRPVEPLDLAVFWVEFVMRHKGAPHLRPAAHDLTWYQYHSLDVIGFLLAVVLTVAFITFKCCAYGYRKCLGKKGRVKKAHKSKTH
The experiment in a line: UGT phenotyping of GL-V9 glucuronidation, rUGT1A10. As to conditions: GL-V9 0.5, 1, 5 μM, 37 °C, 1 h. The procedure:
as §1
(§5) Twelve human recombinant UGT isoforms (rUGT1A1, rUGT1A3, rUGT1A4, rUGT1A6, rUGT1A7, rUGT1A8, rUGT1A9, rUGT1A10, rUGT2B4, rUGT2B7, rUGT2B15, and rUGT2B17) were employed to identify the main UGT enzyme(s) responsible for glucuronidation of GL-V9 under mixture conditions as described in Section 4.3. […]

Data set [9] deals with T2, rUGT2B4 (Homo sapiens, UniProt P06133).
T2 construct: purchased Corning (Woburn, MA, USA)
T2 sequence (P06133 24-528): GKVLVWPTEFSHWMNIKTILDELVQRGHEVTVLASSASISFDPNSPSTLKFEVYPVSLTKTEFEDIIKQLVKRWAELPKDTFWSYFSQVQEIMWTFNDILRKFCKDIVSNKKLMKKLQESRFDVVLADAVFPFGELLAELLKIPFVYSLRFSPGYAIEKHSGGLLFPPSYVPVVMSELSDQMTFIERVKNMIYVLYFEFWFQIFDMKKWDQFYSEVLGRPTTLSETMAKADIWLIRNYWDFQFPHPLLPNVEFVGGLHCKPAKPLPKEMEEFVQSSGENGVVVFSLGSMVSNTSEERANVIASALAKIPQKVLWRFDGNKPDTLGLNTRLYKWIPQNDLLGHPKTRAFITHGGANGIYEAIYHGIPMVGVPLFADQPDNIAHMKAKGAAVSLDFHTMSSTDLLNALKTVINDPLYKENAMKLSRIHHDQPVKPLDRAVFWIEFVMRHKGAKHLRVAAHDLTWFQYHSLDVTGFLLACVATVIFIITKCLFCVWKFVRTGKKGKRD
The experiment in a line: UGT phenotyping of GL-V9 glucuronidation, rUGT2B4. Particulars: GL-V9 0.5, 1, 5 μM, 37 °C, 1 h. The procedure: as §1, §5

`COc1c(OCCCCN2CCCC2)cc(O)c2c(=O)cc(-c3ccccc3)oc12` [GL-V9]: the Km at 1 h in [1] amounted to 11.2 ± 0.47 µM; in data set [3] it was 6.54 ± 0.33 µM; in data set [5], 20.1 ± 1.04 µM. In addition, the “Clint in MLMs relative to DLMs” value in data set [2] (MLMs versus DLMs) is reported as “approximately 9 fold”. Also, the “Glucuronidation rate in MLMs relative to DLMs” value in data set [2] (MLMs versus DLMs) is over 8 fold. For the same compound, the Vmax in data set [2] (formation of 5-O-glucuronide GL-V9, MLMs, protein 0.1 mg/mL, mean ± SD, n = 3) came out at 182.5 ± 4.92 pmol/min/mg; in [4], 32.72 ± 1.45 pmol/min/mg; in data set [6] it was 153.2 ± 10.44 pmol/min/mg; in [7] it was 88.49 ± 4.21 pmol/min/mg. Moreover, in data set [8], the “Metabolism rate (glucuronidation)” value was “too low to be biologically relevant”. In addition, the “Catalytic activity in the production of 5-O-glucuronide GL-V9” value in data set [9] is recorded as “did not show apparent catalytic activity”.
